Assay results published in patent US6458872B1, “Benzotriazole UV absorbers having enhanced durability” (Ciba Specialty Chemicals Corporation, priority 1997, dated 2002).
“Also recorded” adds a separate entry of the source. Values belong to the molecule of their own block, whether it stands above or below them.

Columns and labels:
[1] = Yellowness color of solutions in butyl acetate, Macbeth Color-Eye (Example 75); type: physicochemical; settings: 30 mg/100 mL in butyl acetate; for DE: corresponding Yellowness Index value; for b: yellowness, Macbeth Color-Eye
Method: The following examples show the difference in color between some of the instant compounds as measured by a Macbeth Color-Eye instrument at a concentration of 30 mg/100 mL in butyl acetate. […] In the table, the compounds are listed by increasing b value. The instrument measures yellowness as b and DE is the corresponding Yellowness Index value.

[2] = Loss of UV absorber from high solids thermoset acrylic melamine clear coat, Xenon-Arc X180 cycle (Example 78); type: physicochemical
Source text: Following the general procedure of Example 77, a number of additional benzotriazole test compounds are incorporated into a high solids thermoset acrylic melamine resin at such concentrations between 1.93 and 3% by weight to give equal molar concentrations of test benzotriazole in equal film thickness, and sufficient to give a starting absorbance of approximately 2.0 absorbance units.
The test discs are exposed in a Xenon-Arc Weather-Ometer at X180 cycle (0.45 Watts/M^2). The initial UV absorbance is measured followed by measurements at roughly 250 hour intervals for the first 2000 hours and every 500 hours thereafter. Each clear coat also contains 1% by weight of a hindered amine light stabilizer, bis-(1-octyloxy-2,2,6,6-tetramethylpiperidin-4-yl) sebacate, as well.

[3] = UV absorption data (Example 74); type: physicochemical; set-up: ε @ λ max: unit not given beside the values
[4] = UV absorption data (Example 74); type: physicochemical; settings: for Absorbance @ 375 nm: 20 mg/l concentrations, not the molar extinction values
Method: In the following examples the absorbance at 375 nm is reported for 20 mg/l concentrations. This is not the molar extinction values.

[5] = Durability in polycarbonate film, 2000 hours (Example 81); type: physicochemical; settings: for % Loss / Absorbance (max) Loss units: 2000 hrs; for % Loss / Absorbance (max) Loss units / Absorbance (max) 2000 hrs: BB 2.19 wt %, J 1.81 wt %; for Absorbance (max) 0 hrs: BB 2.19 wt % (352 nm), J 1.81 wt % (344 nm)
Method: The durability of representative benzotriazoles in thermoplastic substrates is determined by incorporating various test compounds into solvent cast films of poly(vinyl chloride), polycarbonate and polystyrene resins. The free standing films are mounted into cardboard holders, secured in metal frames and exposed in an Atlas […] […] Loss of UV absorber is determined by monitoring the loss of diagnostic UV absorption as described earlier. Performance is measured by a change in color or the physical integrity of the film. Polycarbonate flake (LEXAN® 145, General Electric) is dissolved in methylene chloride at room temperature along with between 1 and 3% by weight of test benzotriazole, based on the polycarbonate. Films are cast using a calibrated drawdown bar to prepare 1 mil thick film after drying. […] Weather-meter.

[6] = Loss of UV absorber from high solids thermoset acrylic clear coat, Xenon Arc Weather-Ometer (Example 77); type: physicochemical; settings: after 1211 hours Xenon arc exposure; clear coat with 1% hindered amine; UV absorber at 5 mmol % by weight
Method: To ascertain the effect on thermal durability and loss rate from a high solids thermoset acrylic coating of various 2H-benzotriazole UV absorbers substituted by a variety of electron withdrawing and electron donating groups, the following tests are carried out.
A high solids thermoset acrylic clear coat is prepared by mixing an experimental acrylic polyol resin and hexamethoxymethylmelamine (Resimene® 747, Monsanto) at a solids ratio of 60/40. The dodecylbenzene sulfonic acid catalyst (Nacure® 5225; King Industries) is added at 0.70% by weight. A flow aid Modaflow® (Monsanto) is added at 0.25% by weight to form a model acrylic melamine resin system.
The model clear coat is reduced with xylene to a viscosity of 26-27 second using a Zahn #2 cup and applied via a conventional air spray at 50 psi (3.5 Kg/cm^2) over a 1″×3″ (2.54 cm×7.62 cm) quartz slide. Cure is achieved by baking the slide for 30 minutes at 260° F. (127° C.). The clear coat is stabilized with 1% by weight of a hindered amine light stabilizer, bis-(1-octyloxy-2,2,6,6-tetramethylpiperidin-4-yl)sebacate, (TINUVIN® 123, Ciba-Geigy). The various test benzotriazole UV absorbers are incorporated at the 5 mmol % by weight in the clear coat. The film thickness on the quartz slides range from 1.15 to 1.41 mils (0.029 to 0.036 mm).
The films on the quartz slides are weathered according to the following conditions in Xenon Arc Weather-Ometer with a controlled irradiance at 6500 W, using inner quartz and outer borosilicate S-type filter. The irradiation cycle is as follows: 40 minutes of straight irradiation with no water spray, followed by 20 minutes of light plus front spray, followed by 60 minutes of light irradiation and finally by 60 minutes dart plus rear spray (condensation). The setting is at 0.55 W/M^2 at 340 nm, 1.98 kJ/hour. In the light cycle the black panel temperature is controlled at 70±2° C. The relative humidity in the light cycle is in the range of 50-55% and in the dark cycle 100%. The absorbance of the long wavelength UV band as a function of Xenon arc weathering hours are recorded in the table below.
To follow the loss of UV absorbers from the clear coats, UV spectra are measured initially and after weathering at regular time intervals. The UV spectrophotometer measures absorbance linearly up to 5.5 absorbance units using a reference beam attenuation technique.
This is tested by following the ratio of absorbance of the band at about 300 nm and the band at about 340 nm.
The data in the table below are based on formula A after 1211 hours of exposure of the clear coats containing the test benzotriazole UV absorbers.

[7] = Loss of UV absorber from high solids thermoset acrylic melamine resin, 1002 hours (Example 79); type: physicochemical; settings: 1002 hours exposure; starting absorbance approximately 2.0
Method: Following the general procedure of Example 77, representative benzotriazole test compounds are incorporated into a high solids thermoset acrylic melamine resin at concentrations between 1.93 and 3% by weight to give equal molar concentrations of the test benzotriazole in equal film thickness and sufficient to give a starting absorbance of approximately 2.0 absorbance units. The test samples are exposed as described in Example 77 for 1002 hours.

[8] = after 1253 hours of exposure, starting absorbance approximately 2.0, 1% hindered amine

SMILES: CC(C)(C)CC(C)(C)c1cc(-n2nc3ccc(C(F)(F)F)cc3n2)c(O)c(C(C)(C)c2ccccc2)c1 [S, 5-trifluoromethyl-2-(2-hydroxy-3-α-cumyl-5-tert-octylphenyl)-2H-benzotriazole]
- DE [1]: 1.28
- b [1]: 1.05
- Units Absorbance Loss [2, 8]: 0.1271
- Units Absorbance Loss ([2]; after 1264 hours of exposure): 0.0921
- Units Absorbance Loss ([2]; after 1489 hours of exposure): 0.1547
- Units Absorbance Loss ([2]; after 1518 hours of exposure): 0.1116
- Units Absorbance Loss ([2]; after 2521 hours of exposure): 0.2192
- durability (low loss rate absorbance values after exposure) ([2]; in words, summary of the tables of Example 78): significantly more durable; also recorded: especially durable
- ε @ λ max [3]: 15,000
- λ max nm [3]: 348 nm
- Absorbance @ 375 nm [4]: 0.35

- % Loss [5]: 7.5%
- Absorbance (max) Loss units [5]: 0.184
- Absorbance (max) 0 hrs [5]: 2.454
- Absorbance (max) 2000 hrs [5]: 2.270
- Units Absorbance Loss [6]: 0.4134
SMILES: CC(C)(C)CC(C)(C)c1ccc(O)c(-n2nc3ccccc3n2)c1 [J]

SMILES: CC(C)(C)CC(C)(C)c1ccc(O)c(-n2nc3ccc(C(F)(F)F)cc3n2)c1 [BB, 5-trifluoromethyl-2-(2-hydroxy-5-tert-octylphenyl)-2H-benzotriazole]
- % Loss [5]: 0.6%
- Absorbance (max) Loss units [5]: 0.016
- Absorbance (max) 0 hrs [5]: 2.654
- Absorbance (max) 2000 hrs [5]: 2.638
- DE [1]: 0.27
- b [1]: 0.20
- ε @ λ max [3]: 14,000
- λ max nm [3]: 348 nm
- Absorbance @ 375 nm [4]: 0.33

- ε @ λ max [3]: 20,700
- λ max nm [3]: 328 nm
- Absorbance @ 375 nm [4]: 0.03
- red region absorbance ([4]; in words, upper regions (above 350 nm) of the UV spectra): poor red region absorbance
- melting point: 119 to 120 °C
SMILES: Oc1ccc(C(F)(F)F)cc1-n1nc2ccccc2n1 [EE, 2-(2-hydroxy-5-trifluoromethylphenyl)-2H-benzotriazole]

- melting point: 166 °C
SMILES: CC(C)(C)c1cc(CCC(=O)O)cc(-n2nc3ccc(C(F)(F)F)cc3n2)c1O [Example 39, 3-(5-Trifluoromethyl-2H-benzotriazol-2-yl)-5-tert-butyl-4-hydroxyhydrocinnamic Acid]

SMILES: CCCCOc1ccc(-n2nc3ccccc3n2)c(O)c1 [Z, 2-(2-hydroxy-4-n-butoxyphenyl)-2H-benzotriazole]
- Units of Absorbance Loss [7]: 1.58

SMILES: CC(C)(C)CC(C)(C)c1cc(-n2nc3ccccc3n2)c(O)c(C(C)(C)c2ccccc2)c1 [Q, 2-(2-hydroxy-3-α-cumyl-5-tert-octylphenyl)-2H-benzotriazole]
- DE [1]: 0.07
- b [1]: −0.02
- Units Absorbance Loss [6]: 0.2492
- Units Absorbance Loss [2, 8]: 0.2351
- Units Absorbance Loss ([2]; after 1264 hours of exposure): 0.2293
- Units Absorbance Loss ([2]; after 1489 hours of exposure): 0.287
- Units Absorbance Loss ([2]; after 1518 hours of exposure): 0.2662
- Units Absorbance Loss ([2]; after 2521 hours of exposure): 0.4054
- ε @ λ max [3]: 16,500
- λ max nm [3]: 345 nm
- Absorbance @ 375 nm [4]: 0.28
- Units of Absorbance Loss [7]: 0.28
